Data from US4096259A, “Non-amphetaminic psychostimulating compositions of 1,4-disubstituted piperazines” (priority 1975, dated 1978).

Experiments:
[1] = test system: exploration response in mice; assay: Psychostimulating activity: increase of exploration response in mice (actimetry); assay type: in vivo; conditions: Mus musculus, po, per os, dose which increases exploration response by 50%
From the text: The psychostimulating activity was studied by determining the dose which increases the exploration response in mice (actimetry) by 50% (ED50),according to the method described by BOISSIER J.R. and SIMON P. (Arc. Int. Pharmacolyn, 1965, 212-221158).

[2] = Acute toxicity (LD50) in mice, per os; conditions: mouse, in vivo, po
From the text: Acute toxicity was studied by determining the LD50 in mice, the derivatives being administered per os.

[3] = test system: rat isolated duodenum; assay: In vitro papaverine spasmolytic activity: duodenum contractions in rats induced by barium chloride; conditions: in vitro, rat duodenum, barium chloride; relative to papaverine hydrochloride = 1
Description: The papaverine spasmolytic activity was measured "in vitro" by the concentration ratio: active principle/papaverine hydrochloride concentration, which reduces duodenum contractions in rats, induced by barium chloride, by 50% according to the method of POMARET J. C., SERGANT - ODY M., POURRIAS B. and HUGUET G. (Therapie, 1969, 24, 109-143).
Table V below gives, by way of example, the complementary pharmacological activities such as antiserotonin, adrenolytic and atropinic activities for derivatives N° 21, 23 and 33, the spasmolytic activity of which is the greatest for the rat isolated duodenum.

Structure (SMILES) | ED50 [1] [mg/kg] | LD50 [2] [mg/kg] | Spasmolytic activity (papaverine hydrochloride = 1) [3]
O=C(O)CN1CCN(CCOC(c2ccccc2)c2ccc(F)cc2)CC1 (stereo not drawn) [Derivative 4] | 60 | 1600 | 
COc1cc(C(OCCN2CCN(CCC(=O)O)CC2)c2ccccc2)cc(OC)c1OC (stereo not drawn) [Derivative 10] | > 400 | > 1600 | 
NC(=O)CCN1CCN(CCOC(c2ccccc2)c2ccccc2)CC1 [Derivative 30] | 80 | 1000 | 0,1
CCOC(=O)CCN1CCN(CCOC(c2ccccc2)c2ccc(C)cc2)CC1 (stereo not drawn) [Derivative 19] | > 400 | > 1600 | 1,5
CCOC(=O)CCN1CCN(CCOC(c2ccc(C)cc2)c2ccc(F)cc2)CC1 (stereo not drawn) [Derivative 22] | 35 | > 1600 | 5,5
O=C(O)CCCN1CCN(CCOC(c2ccccc2)c2ccc(F)cc2)CC1 (stereo not drawn) [Derivative 12] | 35 | 1200 | 0,1
O=C(CN1CCN(CCOC(c2ccc(F)cc2)c2ccc(F)cc2)CC1)N1CCN(Cc2ccc3c(c2)OCO3)CC1 [Derivative 34] | 160 | > 1600 | 1,5
CCOC(=O)CCN1CCN(CCOC(c2ccccc2)c2ccc(Cl)cc2)CC1 (stereo not drawn) [Derivative 18] | 30 | 1400 | 1
CCOC(=O)CCCN1CCN(CCOC(c2ccccc2)c2ccc(F)cc2)CC1 (stereo not drawn) [Derivative 24] | 50 | 700 | 2,5
CCOC(=O)CCN1CCN(CCOC(c2ccccc2)c2ccc([N+](=O)[O-])cc2)CC1 (stereo not drawn) [Derivative 20] | > 400 | > 1600 | 5,5
CCCCCCOC(=O)CCN1CCN(CCOC(c2ccc(F)cc2)c2ccc(F)cc2)CC1 [Derivative 26] | 200 | 800 | 1
CCOC(=O)CCN1CCN(CCCOC(c2ccccc2)c2ccc(F)cc2)CC1 (stereo not drawn) [Derivative 28] | < 100 | 800 | 6,5
CCOC(=O)CCN1CCN(CCOC(c2ccccc2)c2ccccc2Cl)CC1 (stereo not drawn) [Derivative 17] | > 200 | 1600 | 1,5
COc1ccccc1C(OCCN1CCN(CCC(=O)O)CC1)c1ccccc1 (stereo not drawn) [Derivative 7] | > 400 | 1400 | 
CCCC(OCCN1CCN(CCC(=O)O)CC1)c1ccccc1 (stereo not drawn) [Derivative 35] | 60 | > 1600 | 
O=C(CN1CCN(CCOC(c2ccccc2)c2ccccc2)CC1)N1CCOCC1 [Derivative 31] | 100 | 800 | 0,5
O=C(O)CN1CCN(CCOC(c2ccccc2)c2ccccc2)CC1 [Derivative 1] | 400 | > 1600 | 
N#CCCN1CCN(CCOC(c2ccccc2)c2ccccc2)CC1 [Derivative 29] | 40 | 300 | 1
CCOC(=O)CCN1CCN(CCCOC(c2ccccc2)c2ccccc2)CC1 [Derivative 27] | 50 | 800 | 3,5
CCCC(OCCN1CCN(CCC(=O)OCC)CC1)c1ccc(F)cc1 (stereo not drawn) [Derivative 36] | > 100 | 1600 | 5
O=C(O)CCCCN1CCN(CCOC(c2ccccc2)c2ccc(F)cc2)CC1 (stereo not drawn) [Derivative 13] | 35 | 1400 | 
O=C(O)CCN1CCN(CCOC(c2ccccc2)c2ccc(Cl)cc2)CC1 (stereo not drawn) [Derivative 8] | 30 | 1000 | 
Cc1ccc(C(OCCN2CCN(CCC(=O)O)CC2)c2ccccc2)cc1 (stereo not drawn) [Derivative 9] | 100 | 1400 | 
O=C(O)CCN1CCN(CCOC(c2ccccc2)c2cccc(C(F)(F)F)c2)CC1 (stereo not drawn) [Derivative 6] | 200 | 1200 | 
